Activity calls are given as the source filed them.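 The calls were made as follows: active = EC50 at or below a set limit, with no effect in the paired counter-screen assay; inactive = the rest.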

This experiment deals with Aedes aegypti neuropeptide Y-like receptor 7 (NPYLR7). Description: NPYLR7 activation potency in cells – cell-based, Aedes aegypti, hit validation, mosquito biting behavior, confirmation (AID 1259427).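 Also: potency of agonists that activate the receptor and raise the calcium signal.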 As to conditions: HEK293T NPYLR7/Galpha15/GCaMP6s, calcium fluorescence.

As for `CCN(CC)c1ccc2c(-c3ccccc3C(=O)O)c3ccc(=[N+](CC)CC)cc-3oc2c1`, the EC50 (in general, the concentration that produces a half-maximal response) is “inactive”. For `O=C(O)CN1C(=O)/C(=C/c2cc(Br)c(O)c(Br)c2)SC1=S`, the EC50 result is “inactive”. As for `C=CCN1C(=O)/C(=C\c2ccc(O)cc2)SC1=S`, the EC50 is > 20 µM (inactive). In the case of `CC1C(=O)c2cccc3c(=O)n(-c4ccccc4)c(O)c(c23)C1=O` (centres undefined), the EC50 was 5.77 µM. For `NCCNc1ccc2c3c(cccc13)C(=O)N(c1ccc(Cl)cc1)C2=O` the value was “inactive”. Then `Cc1cccc(N2C(=O)NC(=O)/C(=C/c3cn(C)c4ccccc34)C2=O)c1`, with > 20 µM (inactive); and `O=C(c1snc2c(=O)n(Cc3ccccc3)c(=O)[nH]c12)N1CCSCC1`, with > 20 µM (inactive). For the molecule `CN(C)c1ccc(/C=C2/SC(=S)N(CC(=O)O)C2=O)cc1Br`, the EC50 entry was “inactive”. For `C#CCN1C(=O)SC(=Cc2ccc(N3CCCCC3)o2)C1=O` the value was “inactive”. `Cc1csc(-c2cc3ccc(O)c(CN4CCN(CCO)CC4)c3oc2=O)n1`: the EC50 was < 0.039 µM (inactive).

`COc1ccc(NC[C@@H]2C=C(C)[C@H](Cc3nnc(C)o3)C[C@H]2C(C)C)cn1`: the EC50 is > 20 µM (inactive). As for `OCCN(CCO)c1nc(N2CCCCC2)c2nc(N(CCO)CCO)nc(N3CCCCC3)c2n1`, the EC50 result is “inactive”. For `O=C1/C(=C/c2cccc(F)c2)Oc2c1ccc(O)c2CN1CCN(CCO)CC1` the value was > 20 µM (inactive); for `CN(Cc1cnc2ccccc2n1)C(=O)C1CC2(CCNCC2)CN1` (centres undefined), > 20 µM (inactive); for `N#CC(C#N)=C1C=C2C=C(N3CCCCCC3)CCC2CC1` (centres undefined), < 0.039 µM (inactive). As for `COc1cc(C=CC(=O)c2ccc3c(c2)OCCO3)cc(Br)c1O`, the EC50 entry was “inactive”. Then `O=C1SC(Nc2ccc(Br)cc2)C(=O)N1c1ccccc1` (centres undefined), with > 20 µM (inactive); and `CCN1CCN(C(=O)c2ccc(Cn3ccsc3=NC(=O)c3ccc(OC)c(OC)c3)o2)CC1`, with 14.3 µM; and `COc1ccc(OC)c(CCNc2nc3cnc(-c4cc(OC)c(OC)c(OC)c4)cc3n2C)c1`, with 12.7 µM. Then `CCC1CN(C(=O)c2cc(C(C)C)on2)CCC(=O)N1Cc1ccccc1` (centres undefined), with > 20 µM (inactive); and `CC(C(=O)O)N1C(=O)/C(=C\c2ccc(O)cc2)SC1=S` (centres undefined), with > 20 µM (inactive).

Turning to `Cc1nn(C)c(Cl)c1/C=C1/CCCc2c1nc1ccccc1c2C(=O)O`, the EC50 was 19.2 µM. Then `COc1cc(/C=C/c2nc3ccccc3o2)cc(Cl)c1O`, with “inactive”; and `Cc1nc(=O)c(-c2ccccc2)c(C)n1-c1ccccc1O`, with > 20 µM (inactive). For `CCOc1cc(/C=C2/Oc3cc(O)ccc3C2=O)cc(Cl)c1OCC(=O)N(C)C`, the EC50 was 16.6 µM. As for `CCOC(=O)C1=C(O)/C(=C\c2ccc(N(C)C)cc2)SC1=Nc1ccc(OC)cc1OC`, the EC50 is > 20 µM (inactive). Then `Nc1ccc2c3c(cccc13)C(=O)NC2=O`, with “inactive”; and `COc1ccc2nc(C=Cc3cc(Br)c(O)c(OC)c3)sc2c1`, with > 20 µM (inactive); and `Nc1nc(Cl)nc2c1ncn2[C@@H]1O[C@H](COP(=O)(O)OP(=O)(O)OP(=O)(O)O)[C@H](O)C1O` (some centres undefined), with < 0.039 µM (inactive). For `Cc1ccc(OCCNC(=O)N2CCN(S(=O)(=O)c3ccccc3Cl)CC2)c(C)c1` the value was > 20 µM (inactive); for `Cc1cc(C=C2Sc3ccccc3N2C)cc(C)[n+]1-c1ccccc1`, “inactive”; for `COc1ccc(C2=NN(C(=O)CN3CCOCC3)C(c3nc4ccccc4[nH]3)C2)cc1` (centres undefined), > 20 µM (inactive). Then `CSc1ccc(C2CC(c3cccs3)=Nc3ncnn32)cc1` (centres undefined), with “inactive”; and `O=c1cc(C(F)(F)F)c2ccc(O)cc2o1`, with “inactive”. As to `COc1ccc(-c2cnn(CCC(N)=O)c2)c(C)c1`, the EC50 was > 20 µM (inactive). As to `Cc1cc(C)c2cc3c(cc2n1)CCN3CC(O)CO` (centres undefined), the EC50 result was “inactive”. On to `CC(=NNc1ncnc2sc(C)c(C)c12)c1ccccn1`, for which the EC50 entry is “inactive”. For `CC1=NCCc2c1[nH]c1cc(O)ccc21` the value was “inactive”; for `CCCCN(CC(=O)Nc1c(-c2ccccc2)c(C)nn1-c1ccccc1C)S(=O)(=O)c1ccc(F)cc1`, > 20 µM (inactive). For `CCOC(=O)c1c(-c2ccccc2)csc1N=Cc1nc(-c2ccccc2)oc1O` the value was > 20 µM (inactive); for `Cc1c(NC(=O)COC(=O)C(C#N)=Cc2ccc(N(C)C)cc2)c(=O)n(-c2ccccc2)n1C`, > 20 µM (inactive).

With `CC(=O)OC(C)C[N+](C)(C)C` (centres undefined), the EC50 is > 20 µM (inactive). Then `Cc1ccc(C2=NN(C(=O)CN3CCN(C)CC3)C(c3ccccc3Cl)C2)cc1` (centres undefined), with > 20 µM (inactive); and `COCCOc1ccc(NC(=O)N(C)C(C)C2(C)CC2)cn1` (centres undefined), with > 20 µM (inactive).

In the case of `C(=Cc1ccccc1)C=NNc1ncnc2ccccc12`, the EC50 is > 20 µM (inactive).

For `NC(=NCCCCCCN=C(N)N=C(N)Nc1ccc(Cl)cc1)N=C(N)Nc1ccc(Cl)cc1`, the EC50 was 2.66 µM.

Regarding `COc1ccc(-n2ccnc2-c2ccc(C#CC(C)(C)O)cc2)cn1`, the EC50 was > 20 µM (inactive).

Regarding `N#CC(=Cc1c(F)c(F)c(F)c(F)c1F)c1ccccn1`, the EC50 was > 20 µM (inactive).

For `CC1(C)CC(c2[nH]cnc2-c2ccccc2)CCO1` (centres undefined), the EC50 was > 20 µM (inactive).

`CC(C)C(=O)Nc1sc2c(c1-c1nc3ccccc3s1)CCN(C)C2`: the EC50 was > 20 µM (inactive).

As for `N#CC1C(=N)Oc2cc(N)ccc2C1c1c(Cl)cccc1Cl` (centres undefined), the EC50 is > 20 µM (inactive). For `O=C(O)c1csc(CSc2nnc(Cc3ccccc3)n2-c2cccc(C(F)(F)F)c2)n1`, the EC50 was > 20 µM (inactive). Turning to `CCC(CO)[n+]1c(C)cc(C=C2Sc3ccccc3N2Cc2ccccc2)cc1C` (centres undefined), the EC50 is 9.8 µM.

As to `O=C1NC(=NS(=O)(=O)c2ccccc2)SC1=Cc1cc([N+](=O)[O-])ccc1O`, the EC50 is > 20 µM (inactive). For `COc1ccc2c(C)nc(N=C(N)N)nc2c1` the value was 19.6 µM; for `CC1CCCCC1OCCNC(=O)C1(c2ccc(F)cc2)CCC1` (centres undefined), > 20 µM (inactive); for `COc1ccc(N2C(=O)/C(=C\c3ccc[nH]3)N(C)C2=S)c([N+](=O)[O-])c1`, > 20 µM (inactive). Then `N#CC(C#N)=C1C=C2C=C(N3CCc4ccccc4C3)CCC2CC1` (centres undefined), with > 20 µM (inactive). With `CNC(=O)c1cnc(/C=C/c2csc(-c3ccsc3)n2)[nH]c1=O`, the EC50 is > 20 µM (inactive).

With `CC(=O)Nc1nc(COC(=O)c2[nH]c(C)c(C(=O)OC(C)C)c2C)cs1`, the EC50 was > 20 µM (inactive).

As to `Cc1ccc(-c2nc3nc(N)n(C)c(=O)c3[nH]c2=O)cc1`, the EC50 is > 20 µM (inactive).

Turning to `O=C(Cc1ccc2c(c1)CCC2)NCC1CCN(c2ccccc2)C1` (centres undefined), the EC50 is > 20 µM (inactive). For the molecule `O=C(CC(c1cccc([N+](=O)[O-])c1)c1c[nH]c2ccccc12)NC1CC1` (centres undefined), the EC50 was > 20 µM (inactive).

With `CCN1CCc2c(sc(NC(=O)COc3ccccc3)c2-c2nc3ccccc3s2)C1`, the EC50 was > 20 µM (inactive). For `Cc1ccc2c(c1)CCCN2CC(=O)N(CCC(N)=O)c1ccccc1` the value was > 20 µM (inactive). For `C[n+]1c2cc(N)ccc2cc2ccc(N)cc21` the value was < 0.039 µM (inactive). With `Cc1ccc(CN(C(=O)c2cc3cc(Cl)ccc3[nH]2)C(C)C)o1`, the EC50 is > 20 µM (inactive). For `CCOC(=O)N1CCN(c2ccc(/C=C(\C#N)c3nc4ccccc4[nH]3)o2)CC1` the value was > 20 µM (inactive).

On to `O=C1/C(=C/c2cc3ccccc3o2)Oc2cc(O)ccc21`, for which the EC50 is > 20 µM (inactive). For `O=C(O)CN1C(=O)/C(=C\c2cc([N+](=O)[O-])cc(Br)c2O)SC1=S` the value was “inactive”. Turning to `CCCCCn1c(=O)c2c(nc3n2CCN3c2cc(C)cc(C)c2)n(C)c1=O`, the EC50 is > 20 µM (inactive). Turning to `CCCc1[nH]n(-c2ccc(Cl)cc2)c(=O)c1/C=C1\NC(=O)N(Cc2ccc(C)cc2)C1=O`, the EC50 was > 20 µM (inactive).

Take `CC[n+]1c(/C=C/C=C2/N(C)c3ccccc3C2(C)C)sc2ccccc21`: the EC50 is > 20 µM (inactive). Then `CCCCNC(=O)CCCCCNC(N)=O`, with > 20 µM (inactive).

In the case of `CCC(CO)[n+]1c(C)cc(C=C2Sc3ccccc3N2CC)cc1C` (centres undefined), the EC50 entry is “inactive”. For `Cn1c(C(C#N)=Cc2c(F)c(F)c(F)c(F)c2F)nc2ccccc21` the value was < 0.039 µM (inactive); for `O=C1c2cccc3c(NCCO)ccc(c23)C(=O)N1CCO`, < 0.039 µM (inactive); for `O=C(c1cnn(-c2ccccc2)n1)N1CCCC(COCc2ccccc2)C1` (centres undefined), “inactive”. For the molecule `N#C/C(=C\c1ccc(O)c(O)c1)C(=O)NCc1ccccc1`, the EC50 was > 20 µM (inactive). For `CCOc1cc(C=O)c(O)c(C=O)c1` the value was “inactive”; for `O=C(O)c1ccccc1-c1c2cc(Br)c(=O)cc-2oc2[c]([Hg])c(O)c(Br)cc12`, < 0.039 µM (inactive). In the case of `CNC[C@H](O)c1ccc(O)c(O)c1`, the EC50 result is “inactive”. Regarding `CC1=CC(C)C(C(=O)O)C(C(=O)O)C1` (centres undefined), the EC50 was > 20 µM (inactive). For `O=P1(Nc2cc(C(F)(F)F)ccc2Cl)C=C(c2ccccc2)OC(c2ccccc2)=C1` the value was > 20 µM (inactive). With `COc1ccc(C(=O)C=Cc2cc(Br)c(O)c(OC)c2)cc1F`, the EC50 result was “inactive”.

For the molecule `N#CC(C#N)=C1C=C2C=C(N3CCCC3)CCC2CC1` (centres undefined), the EC50 was < 0.039 µM (inactive). Then `O=C(c1nccc2ccccc12)N1CCN(CC2CCCC2)CC1`, with > 20 µM (inactive); and `COc1cc(NC(=O)N2CC(=O)N3CCc4c(F)cccc4C3C2)cc(OC)c1OC` (centres undefined), with > 20 µM (inactive); and `N#CC(C#N)=C1C=C2C=C(N3CCCCC3)CCC2CC1` (centres undefined), with < 0.039 µM (inactive).

(Values after PubChem BioAssay AID1259427 (Fisher Drug Discovery Resource Center, 2018).)
